Results: the NIST ThermoML archive (doi:10.1016/j.jct.2013.09.008)

Experiments:
[1] = wn = mass fraction of the nth substance listed; settings: 101.33 kPa, Liquid; for speed of sound: Frequency=3 MHz, Linear variable-path acoustic interferometer; for mass density: Pycnometric method; for viscosity: Capillary tube (Ostwald / Ubbelohde) method
[2] = 101.33 kPa, Liquid; for speed of sound: Frequency=3 MHz, Linear variable-path acoustic interferometer; for viscosity: Capillary tube (Ostwald / Ubbelohde) method
[3] = mn = molality of the nth substance listed, in mol/kg; settings: 101.33 kPa, Liquid, m2 = 0; for speed of sound: Frequency=3 MHz, Linear variable-path acoustic interferometer; for viscosity: Capillary tube (Ostwald / Ubbelohde) method

O=C[C@H](O)[C@@H](O)[C@H](O)[C@H](O)CO [D-glucose] + O
[1]
Settings	mass density, w1 = 0.025 [kg/m3]	mass density, w1 = 0.05 [kg/m3]	speed of sound, w1 = 0.025 [m/s]	speed of sound, w1 = 0.05 [m/s]	viscosity, w1 = 0.025 [mPa·s]	viscosity, w1 = 0.05 [mPa·s]
293.15 K	–	1016.28	1492.9	–	–	–
298.15 K	1005.91	1014.69	–	1514.3	0.9202	0.9767
303.15 K	1004.61	1013.08	1517.4	1525.1	0.8167	0.8605
308.15 K	1003.21	1011.47	–	1535.7	0.7324	0.7697
313.15 K	1001.61	1009.85	1536.9	1545.6	0.661	0.6945
318.15 K	999.76	–	–	1554.5	0.6035	0.6334

OC[C@H]1O[C@@](CO)(O[C@H]2O[C@H](CO)[C@@H](O)[C@H](O)[C@H]2O)[C@@H](O)[C@@H]1O [D-sucrose] + O
[1]
Settings	mass density, w1 = 0.025 [kg/m3]	mass density, w1 = 0.05 [kg/m3]	speed of sound, w1 = 0.025 [m/s]	speed of sound, w1 = 0.05 [m/s]	viscosity, w1 = 0.025 [mPa·s]	viscosity, w1 = 0.05 [mPa·s]
293.15 K	1009.22	1018.91	1497.2	1501.4	–	–
298.15 K	1007.51	1017.19	1511.2	1516.5	0.9618	1.011
303.15 K	1005.76	1015.45	1521.5	1526.6	0.8761	0.9129
308.15 K	1004.05	1013.72	1532.1	1537.7	0.7969	0.8285
313.15 K	1002.31	1011.98	1542.5	1547.7	0.7057	0.7457
318.15 K	1000.56	1010.23	1552	1557.2	0.6624	0.6946

O=C[C@H](O)[C@@H](O)[C@@H](O)CO [L-arabinose] + O
[1]
Settings	mass density, w1 = 0.025 [kg/m3]	mass density, w1 = 0.05 [kg/m3]	speed of sound, w1 = 0.025 [m/s]	speed of sound, w1 = 0.05 [m/s]	viscosity, w1 = 0.025 [mPa·s]	viscosity, w1 = 0.05 [mPa·s]
293.15 K	1007.35	1016.09	1491.4	1502.3	–	–
298.15 K	1005.77	1014.44	1506.7	1516.9	0.9141	0.9695
303.15 K	1004.18	1012.79	1517	1526.8	0.8116	0.8573
308.15 K	1002.6	1011.13	1528.6	1537.9	0.7304	0.7658
313.15 K	1001.01	1009.46	1536.8	1545.7	0.6591	0.689
318.15 K	999.43	1007.8	1543.1	1551.8	0.6006	0.6295

O [water]
[2]
Settings	speed of sound [m/s]	viscosity [mPa·s]
293.15 K	1483.6	–
298.15 K	–	0.8903
303.15 K	1508.4	0.7973
308.15 K	–	0.719
313.15 K	1526.8	0.6526
318.15 K	1533	0.5972

O [water] + N[C@@H](Cc1ccccc1)C(=O)O
[3]
Settings	speed of sound [m/s]	viscosity [mPa·s]
293.15 K	1483.6	–
298.15 K	–	0.8903
303.15 K	1508.4	0.7973
308.15 K	–	0.719
313.15 K	1526.8	0.6526
318.15 K	1533	0.5972

Settings	mass density [kg/m3]
[3], 308.15 K, Pycnometric method	994.07
